Measurements taken from patent US6743446B2, “Methods for stabilizing biologically active agents encapsulated in biodegradable controlled-release polymers” (The Ohio State University Research Foundation, priority 1999, dated 2004).
Values joined by “and” are separate entries in the source; they are usually repeats but may differ in a detail not shown here. Identical values can stand only once. Counter-ions that a name gives are not always drawn. Like-named read-outs stand apart in the source and are kept apart here.

How the values were obtained:
[1] = pH measurement of saturated basic salts in water; assay type: physicochemical; settings: excess basic salt suspended in water, 37° C., 7 days
Protocol: The suspension was then incubated at 37° C. for 7 days. The pH of the supernatant was determined with a Corning 430 pH meter (Corning Inc., NY).

[2] = pH of saturated basic salt suspension after addition of 1 N HCl; assay type: physicochemical; settings: acid added to the saturated suspension with excess salt, 37° C., 3 days
Excerpt: The difference of the neutralization effect from the salts is also reflected in the different water contents of their PLGA devices.

[3] = pH of the release medium during incubation of polymer devices; assay type: physicochemical; settings: 3% BSA/PLGA50/50 (0.20 dl/g) microspheres with 3% base, after 35 days
Excerpt: This effect was confirmed by changes in pH in the release medium and alteration of the PLGA degradation rate.
The pH of the release medium was monitored by a Corning 430 pH meter (Corning Inc., NY) at each sampling interval.

[4] = VCR and VBL stability and release in PLGA microspheres by HPLC; assay type: physicochemical
Protocol: All other reagents and solvents were of analytical grade or purer and purchased from commercial suppliers. Microspheres Preparation Microspheres were prepared by a standard oil-in-oil emulsion-solvent extraction method (17). […] The resulting solution or suspension was added drop-wise to 25 ml of oil (95% cottonseed oil and 5% Span 85 emulsifier) stirred at 500 rpm and room temperature. After 2.5 h of microsphere hardening. 40 ml of petroleum ether (bp: 50 to 100° C.) were added to the emulsion to extract CAN. The emulsion was stirred for additional 15 min, the particles were collected by filtration, and washed 3 times with petroleum ether. The hardened microspheres were flash-frozen with liquid nitrogen and lyophilized with a Labconco Freezone 6 system for 1 day.
The HPLC system consisted of the following: a 510 pump, a 717 Plus autosampler, and a 486 UV detector (waters, Milford, Mass.). […] The mobile phase was composed of aqueous solution of sodium phosphate (10 mM) and methanol 40:60 (v/v) (pH 7.0). For UV detection, the wavelength was set to 298 nm.
Drug release from microspheres was carried out in PBS (127 mM NaCl, 3 mM KCl, 8 mM Na2HPO4, 1 mM KH2PO4, pH 7.4) containing Tween 80 (0.02% w/w/) (PBST) at 37° C. under perfect sink conditions. […] Microspheres were weighed and dissolved in a 50% (v/v) ACN water solution. The precipitated polymer and salts were spun down by brief centrifugation. An aliquot of the supernatant containing drug was removed and analyzed by HPLC.

[5] = reference (23); cited from earlier work
[6] = aqueous solution; cited from earlier work
Balb/c 3T3 fibroblasts = assay: Bioassay for bFGF, cell proliferation (3H-thymidine incorporation); assay type: cell-based; settings: bFGF from Mg(OH)2/BSA/heparin PLGA millicylinders, release and residual fraction
Protocol: The biological activity of bFGF was determined by a cell proliferation assay (20). Balb/c 3T3 fibroblasts (25,000/well, CCL-163, ATCQ in Dulbecco's modified Eagle's medium (DMEM) containing 10% bovine calf serum, […] were seeded (200 μl/well) on 96-well plates. The cells were grown to confluence for one week without changing the medium. On day 7, bFGF samples or standards (10 μl) in the release medium were added and followed 20 h later by addition of 1 μCi of 3H-thymidine (6.7 Ci/mmol, DuPont/NEN® Research Products, Boston, Mass.) per well. After another 6-8 h, the cells were collected on filter paper by using a PHD TM cell harvester (Cambridge Technology Inc.). The harvested cells were resuspended in 3 ml of scintillation cocktail 3a7OB (Research Products International Corp., IL) and counted (Beckman LS 1701 scintillation counter).

nude mice = assay: In vivo angiogenesis of subcutaneously implanted bFGF devices; settings: BSA/Mg(OH)2-containing PLGA formulation implanted subcutaneously, data not shown
Excerpt: In both cases, a controlled release of protein was observed over 28 days (data not shown) resulting in a recovery (released+soluble residue fraction) of >80% (Table 3). In contrast, when the base was removed from the formulation (18% gum arabic), only 30% protein was recovered by the immunoassay. Therefore, the stability characteristic of BMP-2 in PLGA millicylinders was very similar to that of bFGF (although additional stabilizers were used for bFGF) with and without the addition of the basic additive. For both growth factors, in the absence of basic additive, the protein was released mostly on the first day and only a small amount of protein could be recovered from the polymer after 28 days release. In the presence of the basic salt, both proteins were continuously released with >80% recoverable in the 28-day experiment. Moreover, the in vivo biological activities (angiogenesis in nude mice for the bFGF and osteogenesis in rats for the BMP-2) of the BSA/Mg(OH)2-containing formulations were also confirmed when the devices were implanted subcutaneously (data not shown).

[7] = reference (31); cited from earlier work

Molecule: [Mg+2].[OH-].[OH-] [Mg(OH)2]
- pH of saturated solution [1]: 9.97 and 9.76
- pH after addition of 100 μl of 1 N HCl [2]: 8.99
- pH of the release medium [3]: < 4.5
- drug degraded to the basic product during microsphere preparation ([4]; VCR PLGA microspheres with co-encapsulated base): 12%
- pH of saturated solution [5]: 9.8

Molecule: CC[C@]1(O)C[C@H]2CN(CCc3c([nH]c4ccccc34)[C@@](C(=O)OC)(c3cc4c(cc3OC)N(C=O)[C@H]3[C@@](O)(C(=O)OC)[C@H](OC(C)=O)[C@]5(CC)C=CCN6CC[C@]43[C@@H]65)C2)C1 [VCR, Vincristine sulfate]
- stability of encapsulated drug ([4]; PLGA (50% D,L lactide content) microspheres): becomes unstable
- drug remaining intact ([4]; VCR PLGA microspheres with ZnCO3, after 3 weeks): 97%
- drug remaining intact ([4]; VCR PLGA microspheres with ZnCO3, after 4 weeks): 92%
- drug remained in its native form ([4]; VCR in PLGA microspheres without base, 14 days incubation at 37° C.): 23%
- pH of maximum stability [6]: ~4.5

Molecule: bFGF: recombinant human basic fibroblast growth factor
- bFGF bioactive over the entire release interval (Balb/c 3T3 fibroblasts): 65-85%
- in vivo biological activity, angiogenesis (nude mice): confirmed
- in vivo serum half-life [7]: < 3 min
